Experimental data as given in US20140275090A1, “BILE ACID RECYCLING INHIBITORS FOR TREATMENT OF PRIMARY SCLEROSING CHOLANGITIS AND INFLAMMATORY BOWEL DISEASE” (Lumena Pharmaceuticals, Inc., priority 2013, published 2014).

How the values were obtained:
[1] = system: Hepatic HMG-CoA Reductase; test: Hepatic HMG-CoA reductase activity assay, hamster liver microsomes; type: in vivo, golden Syrian hamster; settings: 28 days
Excerpt: Male golden Syrian hamsters (126-147 gm) were obtained from Charles Rivers Laboratories and were single housed in a constant temperature environment with alternating 12-hour light and dark cycles. Hamsters were fed Teklad 7001 rodent meal chow at libitum for two weeks before the experimental studies began and switched to Teklad 7001 rodent meal chow supplemented with 0.24% cholesterol on day one of the 28-day experiment. Water was continuously available to the animals. Hamsters were assigned to groups in a manner that normalized each group by pretreatment body weights. SD-5613 was dissolved in an aqueous solution of 0.2% (w/v) Tween 80 and administered Q.D. by intragastric gavage between 9 a.m. and 10 a.m. each morning using a syringe fitted with a flexible feeding tube. Blood samples were collected after 14- and 28-day treatment periods by orbital sinus and cardiac puncture, respectively. Hamsters were anesthetized but not fasted prior to blood collections. Fecal samples were collected during a 48-hour period at the end of days 14 and 28 (i.e. days 13-14 and 27-28). Hamsters were sacrificed using carbon dioxide asphyxiation to obtain the following tissue samples: liver, kidneys, colon and cecum.
Homogenates of three gram liver tissue samples were prepared in 25 ml homogenization buffer [0.1 M potassium phosphate buffer, pH 7.2, containing 0.1 M sucrose, 50 mM KCl, 50 mM NaF, 5 mM ethylene glycol-bis(β-aminoethyl ether)-N,N,N′,N′-tetraacetic acid (EGTA), 1 mM EDTA, 3 mM dithiothreitol (DTIT), and 1 mM phenylmethylsulfonyl fluoride (PMSF)]. A microsomal fraction was prepared by centrifugation at 10,000×g for ten minutes. The supernatant was subjected to centrifugation at 105,000×g for two hours. The microsomal fraction was resuspended in a 0.1 M Na tetrapyrophosphate buffer (pH 10), with 50 mM NaF, and 1 mM EDTA, and subjected to centrifugation for one hour at 105,000×g. The microsomal fraction was resuspended in the homogenization buffer, and assayed for protein content by Coomassie Protein Plus Assay reagent.
Microsomes (200 μg) were preincubated for 15 minutes at 37° C. in a total volume of 225 μl buffer containing 0.1 M potassium phosphate (pH 7.4), 10 mM imidazole, 5 mM DTT, 10 mM EDTA, 3 mM NADP, 12 mM glucose-6-phosphate and 1 unit glucose-6-phosphate dehydrogenase (catalog number G4134, Sigma, St. Louis). The HMG-CoA reductase assay was initiated by the addition of 9 nmoles (0.5 μCi). DL-[-3^14C]-HMG-CoA (final assay volume was DL-3-[^14C]-250 μl). The mixture was incubated for 60 minutes at 37° C. after which the assay was stopped with 25 μl of 6 N HCl. [^3H]Mevalonic acid (0.1 μCi), used as an internal standard to correct for incomplete recovery, was added to the reaction mixture along with 3 mg of unlabeled mevalonic acid lactone. The mixture was then incubated for an additional 30 minutes at 37° C. The [^14C]mevalonate that was formed and converted into mevalonic acid lactone during both incubations was isolated by thin layer chromatography. Each lane was scraped into 3 ml of InstaGel XF (Packard, Meriden, Conn.) and read on a Beckman Scintillator Counter. Reagents unless noted otherwise were obtained from Sigma, St. Louis, Mo. Isotopes were obtained from NEN Life Science Products, Boston, Mass.

serum bile acids = test: Phase 1 ascending multiple oral doses of LUM001 in healthy adults: serum bile acid analysis; type: in vivo, human; settings: 28 days
Procedure: This Phase 1 study was a randomized, double-blind, placebo-controlled study of ascending multiple oral doses of LUM001 in healthy, adult subjects. This study was conducted at a single center. There were 13 LUM001 dosing panels: 10, 20, 60, 100, and 20 mg every morning (qAM) (2) (i.e., the regimen was tested a second time in the study), 5 mg every evening (qPM), 0.5, 1, 2.5, 5, 2.5 (2), 5 (2), and 0.5 to 5 mg qAM dose titration. Most of the dosing panels included subjects treated with matching placebo. No subject participated in more than 1 dosing panel. Subjects were randomized into the study by dosing panel, and all subjects within a dosing panel received study medication at approximately the same time each day. Safety was reviewed for each panel before subsequent panels were initiated. A total of 167 subjects were treated for 28 days, 147 with LUM001 and 20 with placebo. […]
On Day 1 of the Treatment Period, subjects who qualified for enrollment were randomized in the order in which they were admitted to the research facility. […] The safety and tolerability of LUM001 were evaluated by physical examination, ascertainment of adverse signs and symptoms, and clinical laboratory studies. […]
SBA were analyzed as part of the routine clinical analysis of the serum samples collected at each time point.

Compound: CCCCC1(CCCC)CS(=O)(=O)c2ccc(N(C)C)cc2[C@@H](c2ccc(OCc3ccc(C[N+]45CCN(CC4)CC5)cc3)cc2)[C@H]1O [LUM001]
- Hepatic HMG-CoA Reductase ([1]; 5 mg/kg/day): 4.6 ± 0.4 pmol/mg-protein/min
- Hepatic HMG-CoA Reductase, % change from vehicle group ([1]; 5 mg/kg/day): (+31) %
- Hepatic HMG-CoA Reductase ([1]; 15 mg/kg/day): 16 ± 4 pmol/mg-protein/min
- Hepatic HMG-CoA Reductase, % change from vehicle group ([1]; 15 mg/kg/day): (+346) %
- Hepatic HMG-CoA Reductase ([1]; 50 mg/kg/day): 17 ± 4 pmol/mg-protein/min
- Hepatic HMG-CoA Reductase, % change from vehicle group ([1]; 50 mg/kg/day): (+389) %
- effect on serum bile acids (serum bile acids): significant reduction
